According to DBAASP:
≈ marks a conversion by molar mass, not a printed value. Where “and” joins values, the source holds several entries; their conditions need not be identical. Equal entries are not always repeated. One block for each compound: values may come before it.

How the values were obtained:
Experiment in all cases: ≥ marks a high value that may be exact or a test limit, other limits are often not marked, values filed in µg/mL are converted to µM
[1] = tested on: Staphylococcus aureus NCTC 8325
[2] = tested on: Escherichia coli ATCC 25922
[3] = tested on: Candida albicans ATCC 90028
[4] = tested on: Escherichia coli K-12
[5] = tested on: Staphylococcus aureus USA 300
[6] = tested on: Micrococcus luteus
[7] = tested on: Micrococcus luteus ATCC 9341
[8] = tested on: Staphylococcus aureus ATCC BAA-1556
[9] = tested on: Escherichia coli K99
[10] = tested on: Staphylococcus aureus ATCC 25923
[11] = tested on: Salmonella enterica subsp. enterica serovar Typhimurium C77-31
[12] = tested on: Escherichia coli K88
[13] = tested on: Escherichia coli 078
[14] = tested on: Enterococcus faecalis ATCC 29212
[15] = tested on: Salmonella enterica subsp. enterica serovar Typhimurium ATCC 14028
[16] = tested on: Escherichia coli UB1005
[17] = tested on: Staphylococcus epidermidis ATCC 12228
[18] = tested on: Staphylococcus aureus ATCC 29213
[19] = tested on: Salmonella enterica subsp. enterica serovar Pullorum C79-13
[20] = tested on: Bacillus subtilis CMCC 63501
[21] = tested on: Bacillus subtilis
[22] = tested on: Escherichia coli
[23] = tested on: Klebsiella pneumoniae ATCC 13883
[24] = tested on: Streptococcus pyogenes ATCC 19615
[25] = tested on: Pseudomonas aeruginosa ATCC 27853

MIC [1]: 18 µM (≈ 38 µg/mL)
MIC [2]: 9 µM (≈ 19 µg/mL)
MIC [3]: ≥ 70 µM
Structure (SMILES): CC[C@H](C)[C@H](NC(=O)[C@H](CCCCN)NC(=O)[C@H](CCSC)NC(=O)[C@H](CC(C)C)NC(=O)CNC(=O)CNC(=O)[C@H](CC(C)C)NC(=O)[C@@H](N)Cc1ccccc1)C(=O)N[C@H](C(=O)N1CCC[C@H]1C(=O)N[C@@H](C)C(=O)N[C@@H](C)C(=O)N[C@@H](Cc1ccccc1)C(=O)N[C@H]1CSSC[C@@H](C(=O)O)NC(=O)[C@H](CCCCN)NC(=O)[C@H](CCCCN)NC(=O)[C@H]([C@@H](C)O)NC(=O)[C@H](C(C)C)NC(=O)[C@H](C)NC1=O)[C@@H](C)CC [FLGGLMKIIPAAFCAVTKKC]

MIC [4]: 15 µM (≈ 30.2 µg/mL)
MIC [5]: 7.5 µM and 3.1 µM
Structure (SMILES): CC[C@H](C)[C@H](NC(=O)[C@H](C)NC(=O)[C@H](CCCCN)NC(=O)[C@H](Cc1ccccc1)NC(=O)CN)C(=O)N[C@H](C(=O)N[C@@H](CCC(N)=O)C(=O)N[C@@H](CCCN=C(N)N)C(=O)N[C@H](C(=O)N[C@@H](CCCCN)C(=O)N[C@@H](CC(=O)O)C(=O)N[C@@H](Cc1ccccc1)C(=O)N[C@@H](CC(C)C)C(=O)N[C@@H](CCCN=C(N)N)C(=O)N[C@@H](CC(N)=O)C(=O)N[C@@H](CC(C)C)C(=O)N[C@H](C(N)=O)C(C)C)[C@@H](C)CC)C(C)C [GFKAIVQRIKDFLRNLV]

MIC [1]: ≥ 130 µM
MIC [2]: 60 µM (≈ 107 µg/mL)
MIC [3]: ≥ 200 µM
Structure (SMILES): CC[C@H](C)[C@H](NC(=O)[C@H](CCCCN)NC(=O)[C@H](CC(C)C)NC(=O)[C@H](CC(C)C)NC(=O)[C@@H]1CCCN1C(=O)CNC(=O)[C@H](CC(C)C)NC(=O)[C@H](CC(C)C)NC(=O)CN)C(=O)N[C@@H](C)C(=O)N[C@@H](C)C(=O)N[C@@H](CCCCN)C(=O)N[C@H](C(=O)NCC(=O)N[C@@H](CO)C(=O)N[C@@H](CC(N)=O)C(=O)N[C@@H](CC(C)C)C(=O)N[C@@H](CC(C)C)C(=O)O)C(C)C [GLLGPLLKIAAKVGSNLL]

MIC [6]: 20.3 µM (≈ 50 µg/mL)
Structure (SMILES): CC[C@H](C)[C@H](NC(=O)[C@H](CO)NC(=O)[C@H](CO)NC(=O)[C@@H](NC(=O)[C@H](CC(C)C)NC(=O)CN)C(C)C)C(=O)NCC(=O)N[C@@H](CCCN=C(N)N)C(=O)N[C@@H](C)C(=O)N[C@@H](CC(C)C)C(=O)NCC(=O)NCC(=O)N[C@@H](CC(C)C)C(=O)N[C@@H](CC(C)C)C(=O)N[C@@H](C)C(=O)N[C@@H](CC(=O)O)C(=O)N[C@H](C(=O)N[C@H](C(=O)N[C@@H](CCCCN)C(=O)N[C@@H](CO)C(=O)N[C@@H](CCCCN)C(=O)N[C@@H](CCC(=O)O)C(=O)N[C@@H](CCC(N)=O)C(=O)N1CCC[C@H]1C(=O)N[C@@H](C)C(=O)O)C(C)C)C(C)C [GLVSSIGRALGGLLADVVKSKEQPA]

MIC [1]: ≥ 100 µM
MIC [2]: 18 µM (≈ 41.7 µg/mL)
MIC [3]: ≥ 100 µM
Structure (SMILES): CSCC[C@H](NC(=O)CNC(=O)CNC(=O)[C@H](CCCCN)NC(=O)[C@H](C)NC(=O)[C@H](Cc1ccccc1)NC(=O)[C@H](CCCCN)NC(=O)[C@H](CCCCN)NC(=O)[C@H](CC(C)C)NC(=O)[C@H](C)NC(=O)[C@H](CC(=O)O)NC(=O)[C@H](CC(C)C)NC(=O)[C@H](Cc1ccccc1)NC(=O)[C@@H](NC(=O)CN)C(C)C)C(=O)N[C@@H](CC(N)=O)C(=O)N[C@@H](C)C(=O)N[C@H](C(=O)N[C@@H](CC(C)C)C(=O)N[C@@H](CC(N)=O)C(=O)N1CCC[C@H]1C(=O)N[C@@H](CCCCN)C(=O)O)C(C)C [GVFLDALKKFAKGGMNAVLNPK]

MIC [7]: 1.6 µM (≈ 2.25 µg/mL)
Structure (SMILES): CC[C@H](C)[C@H](N)C(=O)N[C@@H](CC(C)C)C(=O)N1CCC[C@H]1C(=O)N[C@@H](Cc1c[nH]c2ccccc12)C(=O)N[C@@H](CCCCN)C(=O)N[C@@H](Cc1c[nH]c2ccccc12)C(=O)N1CCC[C@H]1C(=O)N[C@@H](Cc1c[nH]c2ccccc12)C(=O)N[C@@H](Cc1c[nH]c2ccccc12)C(=O)N1CCC[C@H]1C(N)=O [ILPWKWPWWP]

MIC [7]: 6.3 µM (≈ 7.08 µg/mL)
Structure (SMILES): CC[C@H](C)[C@H](N)C(=O)N[C@@H](CC(C)C)C(=O)N1CCC[C@H]1C(=O)N[C@@H](Cc1c[nH]c2ccccc12)C(=O)N[C@@H](CCCCN)C(=O)N[C@@H](Cc1c[nH]c2ccccc12)C(=O)N1CCC[C@H]1C(=O)N[C@@H](Cc1c[nH]c2ccccc12)C(N)=O [ILPWKWPW]

MIC [8]: ≥ 100 µM
Structure (SMILES): CC(C)C[C@H](NC(=O)[C@H](CC(C)C)NC(=O)[C@H](CCCCN)NC(=O)[C@H](CC(C)C)NC(=O)[C@H](CC(C)C)NC(=O)[C@H](Cc1c[nH]c2ccccc12)NC(=O)[C@@H](N)CCCCN)C(N)=O [KWLLKLL]

MIC [8]: 12.5 µM (≈ 16.9 µg/mL)
Structure (SMILES): CC[C@H](C)[C@H](NC(=O)[C@H](Cc1c[nH]c2ccccc12)NC(=O)[C@H](CC(C)C)NC(=O)[C@H](CCCN=C(N)N)NC(=O)[C@H](Cc1c[nH]c2ccccc12)NC(=O)[C@@H](N)CCCCN)C(=O)N[C@@H](CCCN=C(N)N)C(=O)N[C@@H](Cc1c[nH]c2ccccc12)C(=O)N[C@@H](CC(C)C)C(N)=O [KWRLWIRWL]

MIC [8]: 12.5 µM (≈ 16.4 µg/mL)
Structure (SMILES): CC[C@H](C)[C@H](NC(=O)[C@H](Cc1c[nH]c2ccccc12)NC(=O)[C@H](CCCN=C(N)N)NC(=O)[C@H](CCCN=C(N)N)NC(=O)[C@H](Cc1c[nH]c2ccccc12)NC(=O)[C@@H](N)CCCCN)C(=O)N[C@@H](C)C(=O)N[C@@H](Cc1c[nH]c2ccccc12)C(=O)N[C@@H](CC(C)C)C(N)=O [KWRRWIAWL]

MIC [8]: ≥ 100 µM
Structure (SMILES): CC[C@H](C)[C@H](NC(=O)[C@H](Cc1c[nH]c2ccccc12)NC(=O)[C@H](CCCN=C(N)N)NC(=O)[C@H](CCCN=C(N)N)NC(=O)[C@H](Cc1c[nH]c2ccccc12)NC(=O)[C@@H](N)CCCCN)C(N)=O [KWRRWI]

MIC [8]: ≥ 100 µM
Structure (SMILES): CC(C)C[C@H](NC(=O)[C@H](CCCCN)NC(=O)[C@H](CC(C)C)NC(=O)[C@H](CC(C)C)NC(=O)[C@H](CC(C)C)NC(=O)[C@H](CCCCN)NC(=O)[C@@H](N)CC(C)C)C(N)=O [LKLLLKL]

MIC [9]: 4 µM (≈ 6.16 µg/mL)
MIC [10]: 4 µM (≈ 6.16 µg/mL)
MIC [11]: 4 µM (≈ 6.16 µg/mL)
MIC [12]: 1 µM (≈ 1.54 µg/mL)
MIC [13]: 4 µM (≈ 6.16 µg/mL)
MIC [14]: 4 µM (≈ 6.16 µg/mL)
MIC [15]: 4 µM (≈ 6.16 µg/mL)
MIC [16]: 1 µM (≈ 1.54 µg/mL)
MIC [2]: 2 µM (≈ 3.08 µg/mL)
MIC [17]: 4 µM (≈ 6.16 µg/mL)
MIC [18]: 4 µM (≈ 6.16 µg/mL)
MIC [19]: 1 µM (≈ 1.54 µg/mL)
MIC [20]: 2 µM (≈ 3.08 µg/mL)
Structure (SMILES): CC[C@H](C)[C@H](NC(=O)[C@H](Cc1c[nH]c2ccccc12)NC(=O)[C@H](CCCCN)NC(=O)[C@H](CC(C)C)NC(=O)[C@@H](NC(=O)[C@H](Cc1c[nH]c2ccccc12)NC(=O)CNC(=O)[C@@H](NC(=O)[C@H](CCCCN)NC(=O)[C@H](CCCCN)NC(=O)[C@H](CC(C)C)NC(=O)[C@@H](N)CCCN=C(N)N)[C@@H](C)CC)C(C)C)C(N)=O [RLKKIGWVLKWI]

MIC [8]: 3.12 µM (≈ 4.51 µg/mL)
Structure (SMILES): CC(C)C[C@H](NC(=O)[C@H](CCCN=C(N)N)NC(=O)[C@H](Cc1c[nH]c2ccccc12)NC(=O)[C@H](CC(C)C)NC(=O)[C@H](Cc1c[nH]c2ccccc12)NC(=O)[C@H](Cc1c[nH]c2ccccc12)NC(=O)[C@H](CC(C)C)NC(=O)[C@H](Cc1c[nH]c2ccccc12)NC(=O)[C@@H](N)Cc1c[nH]c2ccccc12)C(N)=O [WWLWWLWRL]

MIC [10]: 30 µM (≈ 49.5 µg/mL)
MIC [14]: 30 µM (≈ 49.5 µg/mL)
MIC [21]: ≥ 40 µM
MIC [22]: 40 µM (≈ 66 µg/mL)
MIC [15]: 40 µM (≈ 66 µg/mL)
MIC [23]: ≥ 40 µM
MIC [24]: ≥ 70 µM
MIC [25]: 40 µM (≈ 66 µg/mL)
Structure (SMILES): CC(C)[C@H](NC(=O)CNC(=O)[C@H](CCCN=C(N)N)NC(=O)[C@H](Cc1cnc[nH]1)NC(=O)[C@H](Cc1c[nH]c2ccccc12)NC(=O)[C@H](Cc1ccccc1)NC(=O)[C@H](Cc1cnc[nH]1)NC(=O)[C@H](Cc1ccc(O)cc1)NC(=O)[C@@H](N)Cc1ccc(O)cc1)C(=O)N[C@H](C(=O)N[C@@H](CCCCN)C(=O)N[C@@H](CCCN=C(N)N)C(=O)O)[C@@H](C)O [YYHFWHRGVTKR]
